Patent publication US20140037742A1, “ALGINATE MICROPARTICLES AND METHODS OF USING THE SAME” (priority 2012, published 2014)

Test system: Staphylococcus epidermidis
Experiment: Antimicrobial testing, zones of inhibition around saturated discs on agar plates
Format: cell-based
Conditions: positive control disc, all test plates
Protocol: Each disc was saturated with different test materials and zones of inhibition were measured after plates were incubated for 24 and 48 hours.
The synthesized microparticles were also tested for their antimicrobial activity against Staphylococcus epidermidis, a substitute for the pathogenic Staphylococcus aureus.

In the case of [H]/N=C(/N)N[C@H]1[C@H](O)[C@@H](O)[C@H](O[C@@H]2O[C@@H](C)[C@](O)(C=O)[C@H]2O[C@@H]2O[C@@H](CO)[C@H](O)[C@@H](O)[C@@H]2NC)[C@@H](N/C(N)=N\[H])[C@@H]1O [Streptomycin], the zone of inhibition is reported as “large, consistent zone of inhibition”.
